In BindingDB's records for doi:10.1038/nchembio.2306 (AbbVie Inc, 2017):

How the values were obtained:
Polycomb protein EED [1] = biological target: T1, Polycomb protein EED (Homo sapiens, UniProt O75530); experiment: TR-FRET Binding Assay; details: pH 7.5; 25 °C
Description: (§1) The following buffer was used to set up the binding reactions: 20 mM Tris-HCl pH 7.5, 200 mM NaCl, 0.01% Tween-20, 10 μM DTT, and 0.05% BSA, with the DTT and BSA added fresh before initiating the binding assay. […] The reactions were then incubated for 1 h at 25 °C in a humidified chamber to obtain thermodynamic equilibrium before detection on the PerkinElmer Envision plate reader using a LanthaScreen TR-FRET protocol.

Polycomb protein EED [2] = biological target: T1, Polycomb protein EED; experiment: EED A-395 Peptide Competition Assay; details: pH 7.5; 25 °C
Description: as §1, with “chamber” for “chamber to obtain thermodynamic equilibrium”, “an AlphaLISA/Screen” for “a LanthaScreen TR-FRET”

Polycomb protein EED [3] = biological target: T1, Polycomb protein EED; experiment: Radioligand Binding Assay; details: 23 °C
Description: 30 μl of reaction mixtures were incubated at 23 °C for 70 min. To stop the enzymatic reactions, 150 μl of 10% trichloroacetic acetic acid (TCA) was added, mixed and transferred to filter plates (Millipore; cat. # MSFBN6B10). Plates were centrifuged at 2,000 r.p.m. (Allegra X-15R - Beckman Coulter, Inc.) for 2 min followed by two additional 10% TCA washes and one ethanol wash followed by centrifugation.

T1 sequence (O75530 whole entry): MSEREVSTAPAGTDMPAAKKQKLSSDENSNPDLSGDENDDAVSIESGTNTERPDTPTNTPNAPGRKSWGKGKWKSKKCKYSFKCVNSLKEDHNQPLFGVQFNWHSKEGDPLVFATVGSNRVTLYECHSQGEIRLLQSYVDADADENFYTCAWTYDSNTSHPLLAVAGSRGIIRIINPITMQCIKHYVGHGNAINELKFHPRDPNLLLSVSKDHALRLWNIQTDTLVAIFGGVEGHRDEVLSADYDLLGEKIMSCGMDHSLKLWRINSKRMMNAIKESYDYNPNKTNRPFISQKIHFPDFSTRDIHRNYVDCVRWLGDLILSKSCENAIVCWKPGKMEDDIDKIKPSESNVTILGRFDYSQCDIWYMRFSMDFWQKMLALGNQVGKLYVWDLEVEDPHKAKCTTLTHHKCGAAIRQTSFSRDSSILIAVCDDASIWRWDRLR

| Ki (Polycomb protein EED [1]) [nM] | IC50 (Polycomb protein EED [2]) [nM] | IC50 (Polycomb protein EED [3]) [nM] | SMILES |
| --- | --- | --- | --- |
| 1 | – | – | CN(C)[C@H]1CN([C@H]2CCc3cccc(F)c32)C[C@@H]1c1cn(C)c2ccccc12 [(3R,4S)-1-[(1S)-7-fluoroindan-1-yl]-N,N-dimethyl-4-(1-methylindol-3-yl)pyrrolidin-3-amine (3)] |
| 4 | – | – | Cc1cccc(F)c1CN1C[C@H](c2cn(C)c3ccccc23)[C@@H](N(C)C)C1 (racemic) [rac-(3R,4S)-1-(2-fluoro-6-methylbenzyl)-N,N-dimethyl-4-(1-methyl-1H-indol-3-yl)pyrrolidin-3-amine (2)] |
| 1830 | 1320 | > 50000 | CN(C)[C@@H]1CN(Cc2ccccc2)C[C@H]1c1ccc(N2CCN(S(C)(=O)=O)CC2)cc1 [A-395N (6)] |
